Like-named read-outs stand apart in the source and are kept apart here. Where a SMILES comes first, the peptide text is derived from it. Bridges are numbered along the chain shown (N, C = ends). [ ]: non-standard residue; d: D form. Cit = NC(=O)NCCC[C@H](N)C(=O)O; Orn = NCCC[C@H](N)C(=O)O; Mpa = O=C(O)CCS
Columns and labels:
isolated rat uterus = assay type: cell-based
Procedure: The compounds according to the invention were investigated with regard to uterotonic potency on isolated rat uterus, using oxytocin as standard. The antagonistic properties of the compounds were also evaluated with the aid of this preparation. Also in vivo tests using oxytocin as the agonist were carried out, the results being compared with those obtained with Antocin.
Sprague Dawley rats (body weight approximately 250 g) in natural estrous were selected by vaginal smears. An approximately 20 mm long segment was cut from the middle of a uterine horn and mounted in an organ bath containing 10 ml of a modified Locke's solution of the following composition (mM:NaCl 153, KCl 5.63, CaCl2 0.541, NaHCO3 5.95 and glucose 2.78). The solution was gassed with 5% CO2 in oxygen at 30° C. The uterine contractions were allowed to stabilize for 30 min. Contractions were recorded isometrically at a resting tension of 1.5 g using Grass force transducers (Ft. 03). The antagonistic potency of the analogs was calculated as pA2 values (Rudinger, J. & Krejci, I. Experientia 18, (1962), 585-588). pA2 is a measure of the inhibitory effect of the peptide and was defined by Schild (Schild, H. O., British Journal of Pharmacology, 2, (1947), 189-206) as the negative logarithm of the molar concentration of an antagonist which reduces the effect of a dose of agonist to that of half the dose. The agonistic effects, if any, of the antagonists were investigated by adding to the bath containing the uterus preparation a varying amount of peptide corresponding at most to a concentration of 4 μg per ml.

rat uterus in vivo = assay: In vivo inhibition of oxytocin-induced uterus contractions in rats, compared with Antocin; conditions: anaesthetized rats, oxytocin infusion i.v., antagonist 0.8-8.0 μg/100 g i.v.; Antocin given the value 1
Procedure: Sprague Dawley rats (250 g) in natural estrous were anaesthetized with Inactin (0.5 mg/100 g body weight i.p.). Myometrial activity was recorded by means of a catheter fixed in the uterine cavity and filled with modified Locke's solution. The catheter was connected to a Statham P23d transducer, and contractions were recorded on a Grass polygraph (model 7d). Oxytocin was infused intravenously (0.05 μg/min/100 g body weight). When a regular contraction pattern had been obtained, the antagonist (0.8-8.0 μg/100 g body weight) was administered intravenously in a volume of 0.2 ml. The recorded curve was integrated over 15 min intervals immediately before and after injection of the antagonist. The inhibition of the increase in the magnitude of the uterus contractions caused by oxytocin infusion were compared with the inhibition of the Antocin which was given the value 1.

Antidiuretic effect (AD) = assay: Antidiuretic effect (AD); set-up: unit not given here
[1] = Pressor effect (effect on the blood pressure); set-up: reference not given here
[2] = isolated rat uterus, oxytocin as agonist, 30° C.

Compound	Uterus in vitro antagonist pA2 (isolated rat uterus)	Uterus in vivo, compared with Antocin (rat uterus in vivo)	AD (antidiuretic effect) (Antidiuretic effect (AD))	Pressor (effect on the blood pressure) [1]	Uterus in vitro antagonist pA2 (isolated rat uterus; [2])	Type of inhibition of the oxytocin effect (isolated rat uterus)
CCOc1ccc(C[C@@H]2NC(=O)CCSSC[C@@H](C(=O)N3CCC[C@H]3C(=O)N[C@@H](CCCN)C(=O)NCC(N)=O)NC(=O)[C@H](CC(N)=O)NC(=O)[C@H](C(C)C)NC(=O)[C@H]([C@@H](C)CC)NC2=O)cc1 [Example 6, 1-β-mercaptopropionic acid-2-(4-ethoxy)-phenyl alanine-4-valine-8-ornithine vasotocin] ([Mpa]Y(Et)IVNCP[Orn]G-NH2; disulfide 1-6)	7.6	–	–	–	–	–
CC[C@H](C)[C@@H]1NC(=O)[C@@H](Cc2c[nH]c3ccccc23)NC(=O)CCSSC[C@@H](C(=O)N2CCC[C@H]2C(=O)N[C@@H](CCCN)C(=O)NCC(N)=O)NC(=O)[C@H](CC(N)=O)NC(=O)[C@H](C(C)C)NC1=O [Example 14, 1-β-mercaptopropionic acid-2-D-tryptophane-4-valine-8-ornithine vasotocin] ([Mpa][dW]IVNCP[Orn]G-NH2; disulfide 1-6)	7.9	17.9	0.03	0.03	–	–
CCOc1ccc(C[C@@H]2NC(=O)CCSSC[C@@H](C(=O)N3CCC[C@H]3C(=O)N[C@@H](CCCNC(=N)N)C(=O)NCC(N)=O)NC(=O)[C@H](CC(N)=O)NC(=O)[C@H]([C@@H](C)O)NC(=O)[C@H]([C@@H](C)CC)NC2=O)cc1 [Example 5, 1-β-mercaptopropionic acid-2-(4-ethoxy)-phenyl alanine-4-treonine-8-arginine vasotocin] ([Mpa]Y(Et)ITNCPRG-NH2; disulfide 1-6)	–	–	–	–	8.0	–
CC[C@H](C)[C@@H]1NC(=O)[C@@H](Cc2ccc(O)cc2)NC(=O)CCSSC[C@@H](C(=O)N2CCC[C@H]2C(=O)N[C@@H](CCCN)C(=O)NCC(N)=O)NC(=O)[C@H](CC(N)=O)NC(=O)[C@H](C(C)C)NC1=O [Example 13, 1-β-mercaptopropionic acid-2-D-tyrosine-4-valine-8-ornithine vasotocin] ([Mpa][dY]IVNCP[Orn]G-NH2; disulfide 1-6)	8.2	4.4	1.2	0.6	–	–
CCOc1ccc(C[C@@H]2NC(=O)CCSSC[C@@H](C(=O)N3CCC[C@H]3C(=O)N[C@@H](CCCNC(N)=O)C(=O)NCC(N)=O)NC(=O)[C@H](CC(N)=O)NC(=O)[C@H](CCC(N)=O)NC(=O)[C@H]([C@@H](C)CC)NC2=O)cc1 [Example 3, 1-β-mercaptopropionic acid-2-(4-ethoxy)-phenyl alanine-8-citrullin vasotocin] ([Mpa]Y(Et)IQNCP[Cit]G-NH2; disulfide 1-6)	8.5	–	–	–	–	–
CCOc1ccc(C[C@H]2NC(=O)CCSSC[C@@H](C(=O)N3CCC[C@H]3C(=O)N[C@@H](CCCN)C(=O)NCC(N)=O)NC(=O)[C@H](CC(N)=O)NC(=O)[C@H]([C@@H](C)O)NC(=O)[C@H]([C@@H](C)CC)NC2=O)cc1 [Example 11, 1-β-mercaptopropionic acid-2-(4-ethoxy)-D-phenyl alanine-4-treonine-8-ornithine vasotocin] ([Mpa][dY](Et)ITNCP[Orn]G-NH2; disulfide 1-6)	–	–	–	–	8.3	–
CCOc1ccc(C[C@H]2NC(=O)CCSSC[C@@H](C(=O)N3CCC[C@H]3C(=O)N[C@H](CCCNC(=N)N)C(=O)NCC(N)=O)NC(=O)[C@H](CC(N)=O)NC(=O)[C@H](C(C)C)NC(=O)[C@H]([C@@H](C)CC)NC2=O)cc1 [Example 9, 1-β-mercaptopropionic acid-2-(4-ethoxy)-D-phenyl alanine-4-valine-8-D-arginine vasotocin] ([Mpa][dY](Et)IVNCP[dR]G-NH2; disulfide 1-6)	8.6	–	–	–	–	–
CCOc1ccc(C[C@H]2NC(=O)CCSSC[C@@H](C(=O)N3CCC[C@H]3C(=O)N[C@@H](CCCNC(=N)N)C(=O)NCC(N)=O)NC(=O)[C@H](CC(N)=O)NC(=O)[C@H](CCC(N)=O)NC(=O)[C@H]([C@@H](C)CC)NC2=O)cc1 [Example 2, 1-β-mercaptopropionic acid-2-(4-ethoxy)-D-phenyl alanine-8-arginine vasotocin] ([Mpa][dY](Et)IQNCPRG-NH2; disulfide 1-6)	–	–	–	–	8.7	–
CCOc1ccc(C[C@@H]2NC(=O)CCSSC[C@@H](C(=O)N3CCC[C@H]3C(=O)N[C@@H](CCCN)C(=O)NCC(N)=O)NC(=O)[C@H](CC(N)=O)NC(=O)[C@H](CCC(N)=O)NC(=O)[C@H]([C@@H](C)CC)NC2=O)cc1 [Example 1, 1-β-mercaptopropionic acid-2-(4-ethoxy)-phenyl alanine-8-ornithine-vasotocin] ([Mpa]Y(Et)IQNCP[Orn]G-NH2; disulfide 1-6)	8.4	–	–	–	–	–
CCOc1ccc(C[C@H]2NC(=O)CCSSC[C@@H](C(=O)N3CCC[C@H]3C(=O)N[C@@H](CCCN)C(=O)NCC(N)=O)NC(=O)[C@H](CC(N)=O)NC(=O)[C@H]([C@@H](C)O)NC(=O)[C@H]([C@@H](C)CC)NC2=O)cc1 [Antocin, 1-desamino-(2-0-ethyltyrosine)-oxytocin, reference compound] ([Mpa][dY](Et)ITNCP[Orn]G-NH2; disulfide 1-6)	–	1	< 0.2	< 0.1	7.2	competitive inhibition
CC[C@H](C)[C@@H]1NC(=O)[C@@H](Cc2c[nH]c3ccccc23)NC(=O)CCSSC[C@@H](C(=O)N2CCC[C@H]2C(=O)N[C@@H](CCCN)C(=O)NCC(N)=O)NC(=O)[C@H](CC(N)=O)NC(=O)[C@H]([C@@H](C)O)NC1=O [Example 15, 1-β-mercaptopropionic acid-2-D-tryptophane-4-treonine-8-ornithine vasotocin] ([Mpa][dW]ITNCP[Orn]G-NH2; disulfide 1-6)	8.5	7.8	0.1	0.05	–	–
CC[C@H](C)[C@@H]1NC(=O)[C@@H](Cc2c[nH]c3ccccc23)NC(=O)CCSSC[C@@H](C(=O)N2CCC[C@H]2C(=O)N[C@H](CCCNC(=N)N)C(=O)NCC(N)=O)NC(=O)[C@H](CC(N)=O)NC(=O)[C@H]([C@@H](C)O)NC1=O [Example 12, 1-β-mercaptopropionic acid-2-D-tryptophane-4-treonine-8-D-arginine vasotocin] ([Mpa][dW]ITNCP[dR]G-NH2; disulfide 1-6)	–	6.3	0.1	0.12	8.0	–
1-β-mercaptopropionic acid-2-(4-ethoxy)-D-phenyl alanine-8-arginine vasotocin [Example 7]	–	2	37.9	2.5	8.4	–
CCOc1ccc(C[C@H]2NC(=O)CCSSC[C@@H](C(=O)N3CCC[C@H]3C(=O)N[C@@H](CCCN)C(=O)NCC(N)=O)NC(=O)[C@H](CC(N)=O)NC(=O)[C@H](C(C)C)NC(=O)[C@H]([C@@H](C)CC)NC2=O)cc1 [Example 10, 1-β-mercaptopropionic acid-2-(4-ethoxy)-D-phenyl alanine-4-valine-8-ornithine vasotocin] ([Mpa][dY](Et)IVNCP[Orn]G-NH2; disulfide 1-6)	7.9	–	–	–	–	–
CCOc1ccc(C[C@@H]2NC(=O)CCSSC[C@@H](C(=O)N3CCC[C@H]3C(=O)N[C@@H](CCCNC(=N)N)C(=O)NCC(N)=O)NC(=O)[C@H](CC(N)=O)NC(=O)[C@H](C(C)C)NC(=O)[C@H]([C@@H](C)CC)NC2=O)cc1 [Example 4, 1-β-mercaptopropionic acid-2-(4-ethoxy)-phenyl alanine-4-valine-8-arginine vasotocin] ([Mpa]Y(Et)IVNCPRG-NH2; disulfide 1-6)	8.5	–	–	–	–	–

Reference: patent US4504469A, “Vasotocin derivatives” (priority 1982, dated 1985)
